From patent US7384959B2, “Treatment of convulsive states” (priority 1999, dated 2008)
Marks after values point to notes of the source that are not given here.

Tests used:
[1] = system: attention-deficit hyperactivity disorder (ADHD); details: Patrick et al 1987; cited from earlier work
[2] = system: rat; assay: Pentylenetetrazole (PTZ) Seizure Test; type: in vivo; details: for NUMBER OF CLONIC CONVULSIONS number of rats / NUMBER OF DEATHS number of rats / NUMBER OF TONIC CONVULSIONS number of rats: 10 rats per group; for NUMBER OF CLONIC CONVULSIONS number of rats / NUMBER OF DEATHS number of rats / NUMBER OF TONIC CONVULSIONS number of rats / NUMBER OF CLONIC CONVULSIONS % antagonism / NUMBER OF DEATHS % antagonism / NUMBER OF TONIC CONVULSIONS % antagonism: observed during 60 minutes; for LATENCY TO CLONIC CONVULSIONS % change from control / LATENCY TO CLONIC CONVULSIONS mean ± s.e.m. / LATENCY TO DEATHS % change from control / LATENCY TO DEATHS mean ± sem. / LATENCY TO TONIC CONVULSIONS % change from control / LATENCY TO TONIC CONVULSIONS mean ± sem.: rat; for anticonvulsant activity in the PTZ Seizure Test: animal model, delivered subcutaneously
Description: (§1) The following Tables report the results of the Irwin, PTZ and barbital interaction (sleep induction) tests. Description of these tests may be found in Psychopharmacologica, 13:222-257 (1968), Krall et al, Epilepsia 19:409-428 (1978), and Simon et al, J. Pharmacol, Paris 13:241-252 (1982). See also Roux et al, Phoenix international Pharmacology Reports Nos. D30.2061/2 and D99.021/2.
Table 2a reports mean results based on animals showing the symptoms (minimum=3 animals). Table 2b reports results observed during 60 minutes. In these Tables: Student's t Test: NS=Not Significant; *=p<0.05; ** p<0.01; ***=p<0.001 Fisher's Exact Test: No indication=Not Significant; **=p<0.01; ***=p<0.001

[3] = system: mouse; assay: liver damage (plasma alanine aminotransferase, microscopic examination for hepatic necrosis); type: in vivo
Procedure: (§2) At very high doses, some inhibition of cytochrome P450 sub-types C8/9, 2C18/19 and 2D6 was found, but the concentrations required to inhibit enzyme activities (100 μM) were much greater than the maximum concentrations likely to be found in vivo and are therefore not likely to be clinically relevant.

[4] = system: cytochrome P450 sub-type 2C18/19; assay: effect on cytochrome P450 activity; type: in vitro ADME; details: some inhibition at very high doses
Procedure: as §2

[5] = molecular target: T1, cytochrome P450 sub-type 1A2 (Homo sapiens, UniProt P05177); assay: effect on cytochrome P450 activity; type: in vitro ADME
T1 sequence (P05177 1-516): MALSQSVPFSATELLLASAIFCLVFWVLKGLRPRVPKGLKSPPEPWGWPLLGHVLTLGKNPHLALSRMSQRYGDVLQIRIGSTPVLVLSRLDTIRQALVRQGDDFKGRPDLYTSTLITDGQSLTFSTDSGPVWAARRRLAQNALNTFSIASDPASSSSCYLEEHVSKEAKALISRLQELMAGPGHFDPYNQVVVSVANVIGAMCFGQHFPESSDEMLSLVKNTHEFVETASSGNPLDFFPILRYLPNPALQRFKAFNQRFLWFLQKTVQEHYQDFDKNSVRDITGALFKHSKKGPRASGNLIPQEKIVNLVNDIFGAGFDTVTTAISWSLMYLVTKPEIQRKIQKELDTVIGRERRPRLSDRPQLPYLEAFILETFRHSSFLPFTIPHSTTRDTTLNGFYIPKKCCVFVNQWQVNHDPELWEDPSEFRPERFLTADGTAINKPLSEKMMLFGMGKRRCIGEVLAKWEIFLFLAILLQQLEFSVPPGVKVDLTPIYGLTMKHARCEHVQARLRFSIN
Procedure: as §2

[6] = molecular target: cytochrome P450 sub-type 2E1 (Homo sapiens, UniProt P05181); assay: effect on cytochrome P450 activity; type: in vitro ADME
Procedure: as §2

[7] = molecular target: cytochrome P450 sub-type 2D6 (Homo sapiens, UniProt P10635); assay: effect on cytochrome P450 activity; type: in vitro ADME; details: some inhibition at very high doses
Procedure: as §2

[8] = molecular target: cytochrome P450 sub-type 3A4 (Homo sapiens, UniProt P08684); assay: effect on cytochrome P450 activity; type: in vitro ADME
Procedure: as §2

[9] = system: cytochrome P450 sub-type C8/9; assay: effect on cytochrome P450 activity; type: in vitro ADME; details: some inhibition at very high doses
Procedure: as §2

[10] = cited from earlier work
[11] = system: rat; assay: barbital interaction (sleep induction) test; type: in vivo; details: for NUMBER OF RATS SLEEPING: 10 rats per group; for SLEEP DURATION mean ± s.e.m.: maximum 6 hours after barbital injection
Description: as §1
In Table 3, the following apply: Student's t Test: NS=Not Significant; *=p<0.05; **=p<0.01; ***=<0.001 Fisher's Exact Test: (number of rats sleeping) No indication=Not Significant; +=p<0.05; ++=p<0.01; +++=p<0.001 • (#): maximum=6 hours after barbital injection (taken 50 minutes after barbital injection).

[12] = after intravenous dosing; Ding et al 1997; cited from earlier work

cytochrome P450 sub-type 3A4, sequence (P08684 whole entry): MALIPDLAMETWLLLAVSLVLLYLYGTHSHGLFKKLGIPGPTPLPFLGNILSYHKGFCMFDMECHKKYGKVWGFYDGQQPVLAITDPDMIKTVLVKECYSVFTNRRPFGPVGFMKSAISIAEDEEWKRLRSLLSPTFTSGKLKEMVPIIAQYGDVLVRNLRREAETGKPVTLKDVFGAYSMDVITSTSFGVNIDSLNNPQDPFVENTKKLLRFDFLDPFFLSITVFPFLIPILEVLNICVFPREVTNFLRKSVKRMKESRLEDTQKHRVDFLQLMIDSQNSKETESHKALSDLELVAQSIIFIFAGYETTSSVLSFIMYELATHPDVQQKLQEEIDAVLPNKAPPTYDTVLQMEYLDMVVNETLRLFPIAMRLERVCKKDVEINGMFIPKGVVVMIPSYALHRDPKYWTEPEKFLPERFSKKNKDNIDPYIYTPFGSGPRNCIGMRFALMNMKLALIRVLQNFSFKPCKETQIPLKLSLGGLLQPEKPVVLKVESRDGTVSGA
cytochrome P450 sub-type 2E1, sequence (P05181 whole entry): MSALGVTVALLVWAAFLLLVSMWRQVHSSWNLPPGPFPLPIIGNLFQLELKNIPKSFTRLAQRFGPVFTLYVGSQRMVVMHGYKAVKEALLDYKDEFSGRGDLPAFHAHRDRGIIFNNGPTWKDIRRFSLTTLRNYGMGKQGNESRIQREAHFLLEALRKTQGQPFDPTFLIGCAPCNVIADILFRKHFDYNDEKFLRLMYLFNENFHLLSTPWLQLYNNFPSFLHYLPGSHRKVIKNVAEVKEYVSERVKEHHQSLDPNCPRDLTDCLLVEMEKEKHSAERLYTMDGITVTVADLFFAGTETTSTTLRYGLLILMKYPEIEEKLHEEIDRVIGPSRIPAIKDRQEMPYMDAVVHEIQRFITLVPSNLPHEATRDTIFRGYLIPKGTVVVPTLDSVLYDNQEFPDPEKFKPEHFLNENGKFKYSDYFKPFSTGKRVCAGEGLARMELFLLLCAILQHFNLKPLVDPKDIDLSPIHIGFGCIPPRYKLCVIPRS
cytochrome P450 sub-type 2D6, sequence (P10635 whole entry): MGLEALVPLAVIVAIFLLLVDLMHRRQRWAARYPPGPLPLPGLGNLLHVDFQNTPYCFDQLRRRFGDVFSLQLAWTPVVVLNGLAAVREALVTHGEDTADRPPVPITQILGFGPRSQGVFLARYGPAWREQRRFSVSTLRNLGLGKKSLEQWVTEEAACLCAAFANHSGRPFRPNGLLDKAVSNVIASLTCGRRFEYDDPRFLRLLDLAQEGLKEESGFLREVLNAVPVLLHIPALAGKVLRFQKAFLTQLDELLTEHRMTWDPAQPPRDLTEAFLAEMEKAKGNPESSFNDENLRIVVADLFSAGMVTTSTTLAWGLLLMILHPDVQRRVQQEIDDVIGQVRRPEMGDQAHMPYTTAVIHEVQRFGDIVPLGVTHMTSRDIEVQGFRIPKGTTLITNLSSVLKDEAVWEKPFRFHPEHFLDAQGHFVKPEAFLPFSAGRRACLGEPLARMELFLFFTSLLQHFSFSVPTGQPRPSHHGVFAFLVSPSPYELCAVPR

## COC(=O)[C@@H](c1ccccc1)[C@@H]1CCCCN1 [l-MPH, l-threo-Methylphenidate]
[1]
  pharmacological action in the treatment of ADHD: no action on the part of the l-enantiomer (l-MPH) has been detected
[2]; 8 mg/kg s.c. −30 min
  NUMBER OF CLONIC CONVULSIONS number of rats: 10
  NUMBER OF DEATHS number of rats: 10
  NUMBER OF TONIC CONVULSIONS number of rats: 10
  NUMBER OF CLONIC CONVULSIONS % antagonism: 0%
  NUMBER OF DEATHS % antagonism: 0%
  NUMBER OF TONIC CONVULSIONS % antagonism: 0%
  LATENCY TO CLONIC CONVULSIONS % change from control: +38%
  LATENCY TO CLONIC CONVULSIONS mean ± s.e.m.: 756.0 ± 105.0 NS sec
  LATENCY TO DEATHS % change from control: +20%
  LATENCY TO DEATHS mean ± sem.: 1566.1 ± 199.9 NS sec
  LATENCY TO TONIC CONVULSIONS % change from control: +23%
  LATENCY TO TONIC CONVULSIONS mean ± sem.: 1443.0 ± 198.2 NS sec
[2]; 16 mg/kg s.c. −30 min
  NUMBER OF CLONIC CONVULSIONS number of rats: 9
  NUMBER OF DEATHS number of rats: 7
  NUMBER OF TONIC CONVULSIONS number of rats: 8
  NUMBER OF CLONIC CONVULSIONS % antagonism: 10%
  NUMBER OF DEATHS % antagonism: 30%
  NUMBER OF TONIC CONVULSIONS % antagonism: 20%
  LATENCY TO CLONIC CONVULSIONS % change from control: +99%
  LATENCY TO CLONIC CONVULSIONS mean ± s.e.m.: 1086.7 ± 213.6* sec
  LATENCY TO DEATHS % change from control: +35%
  LATENCY TO DEATHS mean ± sem.: 1757.1 ± 209.8* sec
  LATENCY TO TONIC CONVULSIONS % change from control: +53%
  LATENCY TO TONIC CONVULSIONS mean ± sem.: 1785.0 ± 292.2* sec
[2]; 32 mg/kg s.c. −30 min
  NUMBER OF CLONIC CONVULSIONS number of rats: 10
  NUMBER OF DEATHS number of rats: 3++
  NUMBER OF TONIC CONVULSIONS number of rats: 3++
  NUMBER OF CLONIC CONVULSIONS % antagonism: 0%
  NUMBER OF DEATHS % antagonism: 70%
  NUMBER OF TONIC CONVULSIONS % antagonism: 70%
  LATENCY TO CLONIC CONVULSIONS % change from control: +226%
  LATENCY TO CLONIC CONVULSIONS mean ± s.e.m.: 1782.0 ± 161.7*** sec
  LATENCY TO DEATHS % change from control: +150%
  LATENCY TO DEATHS mean ± sem.: 3260.0 ± 121.7*** sec
  LATENCY TO TONIC CONVULSIONS % change from control: +162%
  LATENCY TO TONIC CONVULSIONS mean ± sem.: 3070.0 ± 164.6*** sec
[2]
  anticonvulsant activity in the PTZ Seizure Test: has anticonvulsant potential
[2]; listed as l-enantiomer
  anticonvulsant activity in the PTZ Seizure Test: possess anticonvulsant activity
[3]
  liver damage as assessed by increased plasma level of alanine aminotransferase and microscopic examination for hepatic necrosis: not to be linked with liver damage
[4]
  concentration required to inhibit enzyme activity, cytochrome P450 sub-type 2C18/19: 100 µM
[5]
  effect on activity of cytochrome P450 sub-type 1A2: little or no effect
[6]
  effect on activity of cytochrome P450 sub-type 2E1: little or no effect
[7]
  concentration required to inhibit enzyme activity, cytochrome P450 sub-type 2D6: 100 µM
[8]
  effect on activity of cytochrome P450 sub-type 3A4: little or no effect
[9]
  concentration required to inhibit enzyme activity, cytochrome P450 sub-type C8/9: 100 µM
[10]
  systemic availability following oral dosing: very little l-MPH enters the circulation or becomes available to the brain
[11]; 0.5 mg/kg s.c. −30 min
  SLEEP DURATION % change from control: +3%
  NUMBER OF RATS SLEEPING: 9
  SLEEP DURATION mean ± s.e.m.: 63.8 ± 18.5 NS min
[11]; 2 mg/kg s.c. −30 min
  SLEEP DURATION % change from control: −85%
  NUMBER OF RATS SLEEPING: 4 +
  SLEEP DURATION mean ± s.e.m.: 9.5 ± 6.4** min
[11]; 4 mg/kg s.c. −30 min
  SLEEP DURATION % change from control: −93%
  NUMBER OF RATS SLEEPING: 6
  SLEEP DURATION mean ± s.e.m.: 4.3 ± 2.3*** min
[11]; 8 mg/kg s.c. −30 min
  SLEEP DURATION % change from control: −79%
  NUMBER OF RATS SLEEPING: 1 +++
  SLEEP DURATION mean ± s.e.m.: 13.3 ± 13.3 min
[11]; rat, in vivo
  effect on barbital-induced sleep: antagonise barbital-induced sleep
[12]
  detection in the brain: detected in the brain
